Measurements published in patent publication US20190040063A1, “TRICYCLIC COMPOUND FOR BROMODOMAIN-CONTAINING PROTEIN INHIBITOR AND PREPARATION PHARMACEUTICAL COMPOSITION, AND APPLICATION THEREOF” (CHIA TAI TIANQING PHARMACEUTICAL GROUP CO., LTD., priority 2016, published 2019).

What was measured:
BRD4 = target: T1, BRD4 (Homo sapiens, UniProt O60885); experiment: In vitro enzymatic activity assay: inhibition of BRD4 enzyme binding reaction by HTRF; conditions: GST-BRD4 (51-462) 1 nM, acetylated short peptide 100 nM, 23° C., 60 min
T1 construct: GST-BRD4 (51-462) (purchased from Cisbio); purchased Cisbio
Experimental: IC50 values of the compounds of the present application in inhibiting BRD4 enzyme binding reaction were determined by homogeneous time resolved fluorescence (HTRF). A compound was serially diluted 5-fold with 100% DMSO starting from 1 mM (totally 7 concentrations). 2 μL of the compound at each concentration was added into 48 μL of a reaction buffer solution (20 mM HEPES pH7.5, 150 mM NaCl, 5 mM DTT, 0.005% Tween 20 and 100 μg/ml BSA) to be diluted and fully mixed. Then 2.5 μL of the resulting mixture was added to a 384-well plate (OptiPlate-384, purchased from PerkinElmer), 5 μL of GST-BRD4 (51-462) (purchased from Cisbio) (final concentration: 1 nM) was added, and the resulting mixture was centrifuged, and fully mixed. Then 2.5 μL of a short peptide Biotin-AHA-SGRGK(Ac)GGK-(Ac)GLGK(Ac)GGAK(Ac)RHRKV) (synthesized by GL Biochem (Shanghai) Ltd) (final concentration: 100 nM) was added to initiate the reaction (total reaction volume: 10 μL). The 384-well plate was placed in an incubator at 23° C. to react for 60 min, and then 5 μL of Eu3+ cryptate-labeled anti-GST antibody (purchased from Cisbio) and 5 μL of Streptavidin-XL-665 (purchased from Cisbio) were added to terminate the reaction. After an additional 1 hour incubation in the incubator, the fluorescence values (excited at 320 nm, emitted light at 665 nm and 620 nm being detected, and the ratio of the two being the enzyme binding signal) were read on Envision (purchased from PerkinElmer). The binding strength of each compound to the BRD4 protein was determined respectively at 7 concentrations, and the data were calculated with GraphPad Prism software to obtain the IC50 value of the compound.

MV4-11 cells = experiment: Cell proliferation activity assay (Cell-Titer Blue); format: cell-based; conditions: Homo sapiens, inhibiting cell proliferation, 72 h co-incubation
Experimental: Human acute […] leukemia cell line MV4-11 cells were cultured in PRIM1640 medium plus 10% fetal bovine serum (FBS, purchased from Biological Industries, BI) and 1% penicillin/streptomycin double antibody solution (P/S, purchased from Life Technology) at 37° C. with 5% CO2. On the day before the compound was tested, the MV4-11 cells were spread in a 96-well plate (purchased from Corning) at a concentration of 8,000 cells/195 μL/well. On the next day, the compound was serially diluted 3-fold with 100% DMSO starting from 10 mM (totally 10 concentrations). 2 μL of the resulting mixture at each concentration was diluted with 48 μL of PRIM1640 medium (purchased from Life Technology). 5 μL of the diluted compound at each concentration was added to the spread cell suspension, and the compound and cells were co-incubated in a cell incubator for 72 h (3 days), and then incubated for additional 4 h after adding 35 μL of Cell-Titer Blue reagent (purchased from Promega). Then the fluorescence values (excited at 560 nm, detected at 590 nm) were read on Flexstation III (purchased from Molecular Devices), and the data were calculated with GraphPad Prism software to obtain the IC50 value of the compound in inhibiting cell proliferation.

Row | IC50 (BRD4) [nM] | IC50 (MV4-11 cells) [nM] | SMILES
1 | < 2 | – | COc1ccc2c(n1)c1ncc(-c3c(C)noc3C)cc1n2C(c1ccccc1)C1CCOCC1 (stereo not drawn) [Compound 1, 4-{8-Methoxy-5-[phenyl(tetrahydro-2H-pyran-4-yl)methyl]-5H-pyrrolo[3,2-b:4,5-b′]dipyridin-3-yl}-3,5-dimethylisoxazole]
2 | < 2 | – | CCOC(=O)c1cc2c(cn1)c1ncc(-c3c(C)noc3C)cc1n2C(c1ccccc1)C1CCOCC1 (stereo not drawn) [Compound 3, Ethyl 3-(3,5-dimethylisoxazol-4-yl)-5-[phenyl(tetrahydro-2H-pyran-4-yl)methyl]-5H-pyrrolo[2,3-b:4,5-c′]dipyridine-7-carboxylate]
3 | < 2 | < 10 | Cc1noc(C)c1-c1cnc2c3cnc(C(C)(C)O)cc3n(C(c3ccccc3)C3CCOCC3)c2c1 (stereo not drawn) [Compound 4, 2-{3-(3,5-Dimethylisoxazol-4-yl)-5-[phenyl(tetrahydro-2H-pyran-4-yl)methyl]-5H-pyrrolo[3,2-b:4,5-c′]dipyridin-7-yl}propan-2-ol]
4 | < 2 | – | Cc1noc(C)c1-c1cnc2c3ccc(C(C)(C)O)nc3n(C(c3ccccc3)C3CCOCC3)c2c1 (stereo not drawn) [Compound 6, 2-{3-(3,5-Dimethylisoxazol-4-yl)-5-[phenyl(tetrahydro-2H-pyran-4-yl)methyl]-5H-pyrrolo[2,3-b:4,5-b′]dipyridin-7-yl}propan-2-ol]
5 | < 2 | – | CCOC(=O)c1cc2c(cn1)c1ncc(-c3c(C)noc3C)cc1n2[C@H](c1ccccc1)C1CCOCC1 [Compound 9, Ethyl (S)-3-(3,5-dimethylisoxazol-4-yl)-5-[phenyl(tetrahydro-2H-pyran-4-yl)methyl]-5H-pyrrolo[3,2-b:4,5-c′]dipyridine-7-carboxylate]
6 | < 2 | < 10 | Cc1noc(C)c1-c1cnc2c3cnc(C(C)(C)O)cc3n([C@H](c3ccccc3)C3CCOCC3)c2c1 [Compound 10, (S)-2-{3-(3,5-dimethylisoxazol-4-yl)-5-[phenyl(tetrahydro-2H-pyran-4-yl)methyl]-5H-pyrrolo[3,2-b:4,5-c′]dipyridin-7-yl}propan-2-ol]
7 | < 2 | < 10 | Cc1noc(C)c1-c1cnc2c3cnc(C(C)(C)O)cc3n([C@@H](c3ccccc3)C3CCOCC3)c2c1 [Compound 12, (R)-2-{3-(3,5-dimethylisoxazol-4-yl)-5-[phenyl(tetrahydro-2H-pyran-4-yl)methyl]-5H-pyrrolo[3,2-b:4,5-c′]dipyridin-7-yl}propan-2-ol]
8 | < 2 | < 10 | Cc1noc(C)c1-c1cnc2c3ccc(C(C)(C)O)nc3n([C@H](c3ccccc3)C3CCOCC3)c2c1 [Compound 16, (S)-2-{3-(3,5-dimethylisoxazol-4-yl)-5-[phenyl(tetrahydro-2H-pyran-4-yl)methyl]-5H-pyrrolo[2,3-b:4,5-b′]dipyridin-7-yl}propan-2-ol]
9 | < 2 | – | Cc1nnn(C)c1-c1cnc2c3ccc(C(C)(C)O)nc3n(C(c3ccccc3)C3CCOCC3)c2c1 (stereo not drawn) [Compound 20, 2-(3-(1,4-Dimethyl-1H-1,2,3-triazol-5-yl)-5-[phenyl(tetrahydro-2H-pyran-4-yl)methyl]-5H-pyrrolo[2,3-b:4,5-b′]dipyridin-7-yl)propan-2-ol]
10 | < 2 | < 10 | Cc1noc(C)c1-c1cnc2c3ncc(C(C)(C)O)cc3n(C(c3ccccc3)C3CCOCC3)c2c1 (stereo not drawn) [Compound 22, 2-(7-(3,5-Dimethylisoxazol-4-yl)-5-(phenyl(tetrahydro-2H-pyran-4-yl)methyl]-5H-pyrrolo[3,2-b:4,5-b′]dipyridin-3-yl)propan-2-ol]
11 | < 2 | < 10 | Cc1noc(C)c1-c1cc(F)c2c3ncc(C(C)(C)O)cc3n(C(c3ccccc3)C3CCOCC3)c2c1 (stereo not drawn) [Compound 24, 2-{7-(3,5-dimethylisoxazol-4-yl)-9-fluoro-5-[phenyl(tetrahydro-2H-pyran-4-yl)methyl]-5H-pyridino[3,2-b]indol-3-yl}propan-2-ol]
12 | < 2 | – | Cc1noc(C)c1-c1cnc2c3ccncc3n(C(c3ccccc3)C3CCOCC3)c2c1 (stereo not drawn) [Compound 37, 3,5-Dimethyl-4-{5-[phenyl(tetrahydro-2H-pyran-4-yl)methyl]-5H-pyrrolo[3,2-b:5,4-c′]dipyridin-3-yl}isoxazole]
13 | < 2 | – | CCCC(CCC)n1c2cc(C(C)(C)O)ncc2c2ncc(-c3c(C)noc3C)cc21 [Compound 39, 2-[3-(3,5-Dimethylisoxazol-4-yl)-5-(heptan-4-yl)-5H-pyrrolo[3,2-b:4,5-c′]dipyridin-7-yl]propan-2-ol]
14 | < 2 | – | Cc1noc(C)c1-c1cnc2c3cnc(C(C)(C)O)cc3n(C(c3ccccc3)c3cscn3)c2c1 (stereo not drawn) [Compound 41, 2-{3-(3,5-Dimethylisoxazol-4-yl)-5-[phenyl(thiazol-4-yl)methyl]-5H-pyrrolo[3,2-b:4,5-c′]dipyridin-7-yl}propan-2-ol]
15 | < 2 | < 10 | Cc1noc(C)c1-c1cnc2c3ccc(O)nc3n(C(c3ccccc3)C3CCOCC3)c2c1 (stereo not drawn) [Compound 43, 3-(3,5-Dimethylisoxazol-4-yl)-5-[phenyl(tetrahydro-2H-pyran-4-yl)methyl]-5H-pyrrolo[2,3-b:4,5-b′]dipyridine-7-ol]
16 | < 2 | < 10 | Cc1noc(C)c1-c1cnc2c3ccc(C(N)=O)nc3n(C(c3ccccc3)C3CCOCC3)c2c1 (stereo not drawn) [Compound 50, 3-(3,5-Dimethylisoxazol-4-yl)-5-[phenyl(tetrahydro-2H-pyran-4-yl)methyl]-5H-pyrrolo [2,3-b:4,5-b′]dipyridine-7-carboxamide]
17 | < 2 | < 10 | Cc1noc(C)c1-c1cnc2c3ccc(N)nc3n(C(c3ccccc3)C3CCOCC3)c2c1 (stereo not drawn) [Compound 52, 3-(3,5-Dimethylisoxazol-4-yl)-5-[phenyl(tetrahydro-2H-pyran-4-yl)methyl]-5H-pyrrolo[2,3-b:4,5-b′]dipyridine-7-amine]
18 | < 2 | – | CON(C)C(=O)c1ccc2c3ncc(-c4c(C)noc4C)cc3n(C(c3ccccc3)C3CCOCC3)c2n1 (stereo not drawn) [Compound 55, 3-(3,5-Dimethylisoxazol-4-yl)-N-methoxy-N-methyl-5-[phenyl(tetrahydro-2H-pyran-4-yl)methyl]-5H-pyrrolo[2,3-b:4,5-b′]dipyridine-7-carboxamide]
19 | < 2 | – | CC(=O)c1ccc2c3ncc(-c4c(C)noc4C)cc3n(C(c3ccccc3)C3CCOCC3)c2n1 (stereo not drawn) [Compound 56, 1-{3-(3,5-Dimethylisoxazol-4-yl)-5-[phenyl(tetrahydro-2H-pyran-4-yl)methyl]-5H-pyrrolo[2,3-b:4,5-b′]dipyridin-7-yl}ethyl-1-one]
20 | < 2 | – | Cc1noc(C)c1-c1cnc2c3ccc(C(C)O)nc3n(C(c3ccccc3)C3CCOCC3)c2c1 (stereo not drawn) [Compound 57, 1-{3-(3,5-Dimethylisoxazol-4-yl)-5-[phenyl(tetrahydro-2H-pyran-4-yl)methyl]-5H-pyrrolo[2,3-b:4,5-b′]dipyridin-7-yl}ethan-1-ol]
21 | < 2 | – | Cc1noc(C)c1-c1cnc2c3ccc(C(C)(C)O)nc3n(C(c3ncccc3F)C3CCOCC3)c2c1 (stereo not drawn) [Compound 60]
